Type in all cases: biochemical
In assay [1] the target is T1, Recombinant Human Anaplastic Lymphoma Kinase (Homo sapiens, UniProt Q9UM73).
T1 construct: purchased Invitrogen, Carlsbad, Calif
Nature of the assay: ALK HTRF kinase assay. The note with it: compound at 500 nM or 1 mM; 90 μM ATP. In outline: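 Recombinant human ALK phosphorylated a biotinylated synthetic peptide. Phosphotyrosine was detected by TR-FRET between a Eu-labelled anti-phosphotyrosine antibody and streptavidin-allophycocyanin. IC50 values came from fitting signal against inhibitor concentration to a four-parameter logistic equation with variable Hill slope.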
A general note: Time-resolved FRET reads energy transfer from a long-lived donor to a nearby acceptor.

Assay [2] addresses TYK2 (Homo sapiens, UniProt P29597). Nature of the assay: TYK2 kinase inhibition (Table A1).
Assay [3] addresses T2, human JAK3 (a.a. 781-1124) (Homo sapiens, UniProt P52333).
T2 construct: JAK3 (a.a. 781-1124); His tag (N); made in house; host or cells: insect cells (baculovirus)
Nature of the assay: In vitro JAK kinase assay (HTRF, phosphorylation of a biotinylated peptide), JAK3. The note with it: method AA1 (3 μM ATP) or AA2 (1000 μM ATP), not stated per value. The essentials: (§1)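 Phosphorylation of a biotinylated peptide by the JAK kinase domain, detected by HTRF with Eu-Py20 and SA-APC. ATP was 90 μM for JAK1, 30 μM for JAK2 and 3 μM for JAK3. Reactions ran 1 h at room temperature and were stopped with EDTA, followed by 40 min antibody binding.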

Assay [4] has as its target T3, human JAK2 (a.a. 828-1132) (Homo sapiens, UniProt O60674).
T3 construct: JAK2 (a.a. 828-1132); His tag (N); made in house; host or cells: insect cells (baculovirus)
The experiment in a line: In vitro JAK kinase assay (HTRF, phosphorylation of a biotinylated peptide), JAK2. The note with it: method AA1 (30 μM ATP) or AA2 (1000 μM ATP), not stated per value. In outline:
as §1

The target of assay [5] is T4, human JAK1 (a.a. 837-1142) (Homo sapiens, UniProt P23458).
T4 construct: human JAK1 (a.a. 837-1142); His tag (N); made in house; host or cells: insect cells (baculovirus)
T4 sequence (P23458 849-1154): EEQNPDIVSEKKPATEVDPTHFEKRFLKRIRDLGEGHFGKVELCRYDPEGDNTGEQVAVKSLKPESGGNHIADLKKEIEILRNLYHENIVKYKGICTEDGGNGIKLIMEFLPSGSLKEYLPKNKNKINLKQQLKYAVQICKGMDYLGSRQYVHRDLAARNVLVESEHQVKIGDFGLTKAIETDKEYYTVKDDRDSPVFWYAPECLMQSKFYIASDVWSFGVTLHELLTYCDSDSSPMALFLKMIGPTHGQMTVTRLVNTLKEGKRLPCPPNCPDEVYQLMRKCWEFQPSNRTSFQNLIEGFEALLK
Nature of the assay: In vitro JAK kinase assay (HTRF, phosphorylation of a biotinylated peptide), JAK1. The note with it: method AA1 (90 μM ATP) or AA2 (1000 μM ATP), not stated per value; read-out: JAK1 IC50. In outline: as §1

In general, IC50 refers to the concentration that inhibits the measured activity by half.

Structures can show the parent of a compound that is named as a salt.

T2 sequence (P52333 781-1124): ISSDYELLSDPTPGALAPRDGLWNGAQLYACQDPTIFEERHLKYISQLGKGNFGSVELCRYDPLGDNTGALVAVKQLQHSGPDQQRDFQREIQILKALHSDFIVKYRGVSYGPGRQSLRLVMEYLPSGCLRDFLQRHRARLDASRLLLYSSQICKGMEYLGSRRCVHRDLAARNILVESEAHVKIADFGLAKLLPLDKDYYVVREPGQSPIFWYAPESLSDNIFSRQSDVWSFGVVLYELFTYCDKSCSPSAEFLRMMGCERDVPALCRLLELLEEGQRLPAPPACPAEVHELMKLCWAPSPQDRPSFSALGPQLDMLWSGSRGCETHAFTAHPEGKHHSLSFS
TYK2, sequence (P29597 whole entry): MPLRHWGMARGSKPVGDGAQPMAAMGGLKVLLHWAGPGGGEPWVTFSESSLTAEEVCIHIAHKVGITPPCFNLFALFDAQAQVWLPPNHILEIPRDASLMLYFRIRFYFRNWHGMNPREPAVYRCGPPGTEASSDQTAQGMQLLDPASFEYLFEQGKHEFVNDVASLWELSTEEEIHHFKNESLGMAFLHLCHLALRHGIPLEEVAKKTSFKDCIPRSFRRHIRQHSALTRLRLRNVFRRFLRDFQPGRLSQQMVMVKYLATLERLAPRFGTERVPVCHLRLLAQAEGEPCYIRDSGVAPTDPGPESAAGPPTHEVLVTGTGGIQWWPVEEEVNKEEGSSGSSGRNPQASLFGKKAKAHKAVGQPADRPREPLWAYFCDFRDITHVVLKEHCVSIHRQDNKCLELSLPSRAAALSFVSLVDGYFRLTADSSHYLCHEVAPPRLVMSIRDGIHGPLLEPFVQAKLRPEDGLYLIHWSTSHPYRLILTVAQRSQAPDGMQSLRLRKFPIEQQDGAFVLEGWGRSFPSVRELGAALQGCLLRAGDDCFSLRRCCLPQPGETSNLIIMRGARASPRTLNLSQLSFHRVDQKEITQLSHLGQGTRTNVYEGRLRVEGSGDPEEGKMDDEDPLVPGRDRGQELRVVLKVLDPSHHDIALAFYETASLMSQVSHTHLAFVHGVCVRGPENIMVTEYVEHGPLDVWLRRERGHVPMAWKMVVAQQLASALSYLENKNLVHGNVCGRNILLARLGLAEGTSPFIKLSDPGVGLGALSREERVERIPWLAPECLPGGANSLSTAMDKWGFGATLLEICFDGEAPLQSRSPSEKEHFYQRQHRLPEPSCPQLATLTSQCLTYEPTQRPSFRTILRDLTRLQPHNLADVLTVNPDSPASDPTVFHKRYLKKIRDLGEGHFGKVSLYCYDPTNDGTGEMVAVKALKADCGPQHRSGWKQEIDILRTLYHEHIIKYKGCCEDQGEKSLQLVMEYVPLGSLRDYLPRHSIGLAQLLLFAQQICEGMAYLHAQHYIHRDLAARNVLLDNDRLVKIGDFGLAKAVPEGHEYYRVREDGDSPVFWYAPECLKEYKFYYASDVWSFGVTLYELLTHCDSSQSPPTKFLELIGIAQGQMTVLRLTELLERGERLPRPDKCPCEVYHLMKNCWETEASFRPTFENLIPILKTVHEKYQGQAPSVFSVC
T1 sequence (Q9UM73 19-1620): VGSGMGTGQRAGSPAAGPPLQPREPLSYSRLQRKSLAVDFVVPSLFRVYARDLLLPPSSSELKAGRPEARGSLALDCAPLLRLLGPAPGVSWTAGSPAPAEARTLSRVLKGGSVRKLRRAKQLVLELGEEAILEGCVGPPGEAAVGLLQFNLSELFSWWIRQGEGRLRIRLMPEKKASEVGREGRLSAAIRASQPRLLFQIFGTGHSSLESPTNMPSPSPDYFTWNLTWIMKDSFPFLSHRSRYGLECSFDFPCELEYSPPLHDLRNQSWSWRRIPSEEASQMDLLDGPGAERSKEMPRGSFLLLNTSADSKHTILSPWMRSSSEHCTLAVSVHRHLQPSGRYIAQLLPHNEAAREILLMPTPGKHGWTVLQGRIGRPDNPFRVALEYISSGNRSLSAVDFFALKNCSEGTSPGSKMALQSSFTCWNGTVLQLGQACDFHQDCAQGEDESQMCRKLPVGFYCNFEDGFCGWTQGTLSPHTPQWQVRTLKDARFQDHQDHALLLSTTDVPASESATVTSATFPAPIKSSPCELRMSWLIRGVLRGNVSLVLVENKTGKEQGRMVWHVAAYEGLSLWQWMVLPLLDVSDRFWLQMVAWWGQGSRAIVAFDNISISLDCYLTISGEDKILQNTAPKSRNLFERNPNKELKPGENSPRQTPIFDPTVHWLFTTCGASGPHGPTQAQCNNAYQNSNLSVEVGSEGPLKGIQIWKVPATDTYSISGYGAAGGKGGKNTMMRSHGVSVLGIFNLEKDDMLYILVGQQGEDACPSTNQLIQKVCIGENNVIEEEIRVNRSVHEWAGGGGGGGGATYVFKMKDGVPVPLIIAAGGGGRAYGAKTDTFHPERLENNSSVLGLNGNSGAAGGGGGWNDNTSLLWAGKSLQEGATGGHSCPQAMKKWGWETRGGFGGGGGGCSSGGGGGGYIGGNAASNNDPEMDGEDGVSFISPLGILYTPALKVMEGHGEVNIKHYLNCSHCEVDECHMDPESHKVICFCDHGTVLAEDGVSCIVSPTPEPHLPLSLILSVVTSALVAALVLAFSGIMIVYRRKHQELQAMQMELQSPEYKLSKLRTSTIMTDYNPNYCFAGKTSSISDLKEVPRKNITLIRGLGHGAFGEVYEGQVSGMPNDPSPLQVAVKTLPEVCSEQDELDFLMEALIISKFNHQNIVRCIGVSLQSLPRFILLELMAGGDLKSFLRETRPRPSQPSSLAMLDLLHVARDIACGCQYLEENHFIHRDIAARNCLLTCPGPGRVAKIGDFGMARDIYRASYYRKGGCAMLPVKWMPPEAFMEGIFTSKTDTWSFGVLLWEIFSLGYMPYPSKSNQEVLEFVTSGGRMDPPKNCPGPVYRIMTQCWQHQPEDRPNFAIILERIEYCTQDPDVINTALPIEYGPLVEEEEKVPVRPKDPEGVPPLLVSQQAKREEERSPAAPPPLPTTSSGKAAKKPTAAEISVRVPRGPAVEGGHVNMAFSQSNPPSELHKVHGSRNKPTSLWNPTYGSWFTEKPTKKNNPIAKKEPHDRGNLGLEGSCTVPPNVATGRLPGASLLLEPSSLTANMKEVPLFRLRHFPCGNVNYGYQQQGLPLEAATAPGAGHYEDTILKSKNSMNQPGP
T3 sequence (O60674 828-1132): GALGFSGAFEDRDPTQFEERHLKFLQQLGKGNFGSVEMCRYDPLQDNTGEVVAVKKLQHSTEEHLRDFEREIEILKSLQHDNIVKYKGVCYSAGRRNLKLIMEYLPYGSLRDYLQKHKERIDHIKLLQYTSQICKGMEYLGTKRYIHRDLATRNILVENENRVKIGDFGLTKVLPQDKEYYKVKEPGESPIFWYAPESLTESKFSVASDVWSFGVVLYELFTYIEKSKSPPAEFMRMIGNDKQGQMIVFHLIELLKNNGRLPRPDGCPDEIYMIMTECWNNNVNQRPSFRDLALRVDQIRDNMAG

For the compound `CC(C)S(=O)(=O)N1CCC(CC(=O)Nc2ccc3cc2CCc2cccc(c2)Nc2ncc(Cl)c(n2)N3)CC1` [Example A82, N-[6-Chloro-2,4,8,22-tetraazatetracyclo[14.3.1.1(3,7).1(9,13)]docosa-1(20),3(22),4,6,9(21),10,12,16,18-nonaen-12-yl]-2-[1-(isopropylsulfonyl)piperidin-4-yl]acetamide trifluoroacetate], the “ALK % of inhibition at a concentration of 500 nM or 1 mM” value (from here on “ALK % of inhibition”) in assay [1] is 31%. Further, the IC50 in assay [2] stood at 13 nM; in assay [3] it was 17 nM; in assay [4] it was 3.7 nM; in assay [5] it was 7.3 nM.

For the compound `CCS(=O)(=O)N1CCC(CC(=O)Nc2ccc3cc2CCc2cccc(c2)Nc2ncc(Cl)c(n2)N3)CC1` [Example A83, N-[6-Chloro-2,4,8,22-tetraazatetracyclo[14.3.1.1(3,7).1(9,13)]docosa-1(20),3(22),4,6,9(21),10,12,16,18-nonaen-12-yl]-2-[1-(ethylsulfonyl)piperidin-4-yl]acetamide trifluoroacetate], in assay [1], the “ALK % of inhibition” value amounted to 41%. The IC50 in assay [2] was 2.5 nM; in assay [3], 12 nM; in assay [4] it was 2.5 nM; in assay [5], 1.9 nM.

`CC(C)NC(=O)N1CCC(CC(=O)Nc2ccc3cc2CCc2cccc(c2)Nc2ncc(Cl)c(n2)N3)CC1` [Example A84, 4-(2-{[6-Chloro-2,4,8,22-tetraazatetracyclo[14.3.1.1(3,7).1(9,13)]docosa-1(20),3(22),4,6,9(21),10,12,16,18-nonaen-12-yl]amino}-2-oxoethyl)-N-isopropylpiperidine-1-carboxamide trifluoroacetate]: the “ALK % of inhibition” value in assay [1] turned out to be 31%. Moreover, the IC50 amounted to 16 nM in assay [2], 49 nM in assay [3], 9 nM in assay [4] and 24 nM in assay [5].

Take `CC(C)(C)NC(=O)N1CCC(CC(=O)Nc2ccc3cc2CCc2cccc(c2)Nc2ncc(Cl)c(n2)N3)CC1` [Example A85, N-(tert-Butyl)-4-(2-{[6-chloro-2,4,8,22-tetraazatetracyclo[14.3.1.1(3,7).1(9,13)]docosa-1(20),3(22),4,6,9(21),10,12,16,18-nonaen-12-yl]amino}-2-oxoethyl)piperidine-1-carboxamide trifluoroacetate]: in assay [1], the “ALK % of inhibition” value was found to be 19%. Further, the IC50 was determined as 33 nM in assay [2], 147 nM in assay [3], 13 nM in assay [4] and 49 nM in assay [5].

Regarding `Cc1cc(C(=O)N2CCC(CC(=O)Nc3ccc4cc3CCc3cccc(c3)Nc3ncc(Cl)c(n3)N4)CC2)no1` [Example A86, N-[6-Chloro-2,4,8,22-tetraazatetracyclo[14.3.1.1(3,7).1(9,13)]docosa-1(20),3(22),4,6,9(21),10,12,16,18-nonaen-12-yl]-2-{1-[(5-methylisoxazol-3-yl)carbonyl]piperidin-4-yl}acetamide trifluoroacetate], the “ALK % of inhibition” value in assay [1] stood at 32%. Besides, the IC50 in assay [2] was determined as 1.5 nM; in assay [3], 29 nM; in assay [4], 2.2 nM; in assay [5], 0.8 nM.

Take `O=C(CC1CCN(C(=O)c2cnccn2)CC1)Nc1ccc2cc1CCc1cccc(c1)Nc1ncc(Cl)c(n1)N2` [Example A87, N-[6-Chloro-2,4,8,22-tetraazatetracyclo[14.3.1.1(3,7).1(9,13)]docosa-1(20),3(22),4,6,9(21),10,12,16,18-nonaen-12-yl]-2-[1-(pyrazin-2-ylcarbonyl)piperidin-4-yl]acetamide bis(trifluoroacetate)]: the “ALK % of inhibition” value in assay [1] is reported as 31%. In addition, the IC50 worked out at 12 nM in assay [2], 56 nM in assay [3], 9.8 nM in assay [4] and 14 nM in assay [5].

Consider `CC(C)(C)C(=O)N1CCC(CC(=O)Nc2ccc3cc2CCc2cccc(c2)Nc2ncc(Cl)c(n2)N3)CC1` [Example A88, N-[6-Chloro-2,4,8,22-tetraazatetracyclo[14.3.1.1(3,7).1(9,13)]docosa-1(20),3(22),4,6,9(21),10,12,16,18-nonaen-12-yl]-2-[1-(2,2-dimethylpropanoyl)piperidin-4-yl]acetamide trifluoroacetate], for which the “ALK % of inhibition” value in assay [1] amounted to 22%. Further, the IC50 came to 47 nM in assay [2], 86 nM in assay [3], 24 nM in assay [4] and 14 nM in assay [5].

As to `CC(C)C(=O)N1CCC(CC(=O)Nc2ccc3cc2CCc2cccc(c2)Nc2ncc(Cl)c(n2)N3)CC1` [Example A89, N-[6-Chloro-2,4,8,22-tetraazatetracyclo[14.3.1.1(3,7).1(9,13)]docosa-1(20),3(22),4,6,9(21),10,12,16,18-nonaen-12-yl]-2-(1-isobutyrylpiperidin-4-yl)acetamide trifluoroacetate], in assay [1], the “ALK % of inhibition” value was 29%. Also, the IC50 in assay [2] came out at 3 nM; in assay [3] it was 57 nM; in assay [4] it was 3.7 nM; in assay [5] it was 6.5 nM.

Turning to `CCC(=O)N1CCC(CC(=O)Nc2ccc3cc2CCc2cccc(c2)Nc2ncc(Cl)c(n2)N3)CC1` [Example A90, N-[6-Chloro-2,4,8,22-tetraazatetracyclo[14.3.1.1(3,7).1(9,13)]docosa-1(20), 3(22),4,6,9(21),10,12,16,18-nonaen-12-yl]-2-(1-propionylpiperidin-4-yl)acetamide trifluoroacetate], the “ALK % of inhibition” value in assay [1] amounted to 30%. The IC50 in assay [2] was 4.9 nM; in assay [3], 68 nM; in assay [4] it was 5.4 nM; in assay [5] it was 4.9 nM.

Consider `CS(=O)(=O)N1CCC(CC(=O)Nc2ccc3cc2CCc2cncc(c2)Nc2ncc(Cl)c(n2)N3)C1` (stereo not shown) [Example A91, N-[6-Chloro-2,4,8,18,22-pentaazatetracyclo[14.3.1.1(3,7).1(9,13)]docosa-1(20),3(22),4,6,9(21),10,12,16,18-nonaen-12-yl]-2-[1-(methylsulfonyl)pyrrolidin-3-yl]acetamide bis(trifluoroacetate)], for which the “ALK % of inhibition” value in assay [1] came to 29%. The IC50 in assay [2] was determined as 14 nM; in assay [3], 44 nM; in assay [4], 5.9 nM; in assay [5], 3.7 nM.

`O=C(CC1CCN(C(=O)Nc2ccccc2)C1)Nc1ccc2cc1CCc1cncc(c1)Nc1ncc(Cl)c(n1)N2` (stereo not shown) [Example A92, 3-(2-{[6-Chloro-2,4,8,18,22-pentaazatetracyclo[14.3.1.1(3,7).1(9,13)]docosa-1(20),3(22),4,6,9(21),10,12,16,18-nonaen-12-yl]amino}-2-oxoethyl)-N-phenylpyrrolidine-1-carboxamide bis(trifluoroacetate)]: the “ALK % of inhibition” value in assay [1] came out at 61%. Besides, the IC50 in assay [2] is 21 nM; in assay [3] it was 79 nM; in assay [4], 6.1 nM; in assay [5], 1.4 nM.

On to `CNC(=O)N1CCC(CC(=O)Nc2ccc3cc2CCc2cncc(c2)Nc2ncc(Cl)c(n2)N3)C1` (stereo not shown) [Example A93, 3-(2-{[6-Chloro-2,4,8,18,22-pentaazatetracyclo[14.3.1.1(3,7).1(9,13)]docosa-1(20),3(22),4,6,9(21),10,12,16,18-nonaen-12-yl]amino}-2-oxoethyl)-N-methylpyrrolidine-1-carboxamide bis(trifluoroacetate)], for which, in assay [1], the “ALK % of inhibition” value came out at 30%. Moreover, the IC50 in assay [2] was determined as 43 nM; in assay [3], 112 nM; in assay [4], 24 nM; in assay [5], 22 nM.

On to `CC(=O)N1CCC(CC(=O)Nc2ccc3cc2CCc2cncc(c2)Nc2ncc(Cl)c(n2)N3)C1` (stereo not shown) [Example A94, 2-(1-Acetylpyrrolidin-3-yl)-N-[6-chloro-2,4,8,18,22-pentaazatetracyclo[14.3.1.1(3,7).1(9,13)]docosa-1(20),3(22),4,6,9(21),10,12,16,18-nonaen-12-yl]acetamide bis(trifluoroacetate)], for which the “ALK % of inhibition” value in assay [1] is listed as 26%. Also, the IC50 amounted to 32 nM in assay [2], 86 nM in assay [3], 17 nM in assay [4] and 21 nM in assay [5].

As for `CN(C)C(=O)N1CCC(CC(=O)Nc2ccc3cc2CCc2cncc(c2)Nc2ncc(Cl)c(n2)N3)CC1` [Example A95, 4-(2-{[6-Chloro-2,4,8,18,22-pentaazatetracyclo[14.3.1.1(3,7).1(9,13)]docosa-1(20),3(22),4,6,9(21),10,12,16,18-nonaen-12-yl]amino}-2-oxoethyl)-N,N-dimethylpiperidine-1-carboxamide bis(trifluoroacetate)], the “ALK % of inhibition” value in assay [1] was 18%. Further, the IC50 stood at 9 nM in assay [2], 160 nM in assay [3], 23 nM in assay [4] and 9.1 nM in assay [5].

The record behind these values is patent publication US8871753B2, “Macrocyclic compounds and their use as kinase inhibitors” (Incyte Corporation, priority 2008, dated 2014).
